Reference: US6291247A, “Methods of screening for factors that disrupt neurotrophin conformation and reduce neurotrophin biological activity” (priority 1996, dated 2001)

Legend:
[1] = biological target: T1, p75^NTR and TrkA (Mus musculus, UniProt P01139); assay: Binding of 125I-NGF to PC12 cells (p75NTR + TrkA); parameters: species or system rat; conditions: for Total Binding to PC12 cells: 100 μM, 125I-NGF, 120 min
T1 construct: these cells express both NGF receptor types; endogenous in cells; host or cells: PC12 rat pheochromocytoma cells
Experimental: (§1) PC12 cells were grown in RPMI with 10% heat inactivated donor horse serum and 5% fetal calf serum. […] The tubes were incubated for 2 hr at 4° C. and 100 μl aliquots (providing triplicate data points for each sample) were transferred to 400 μl microcentrifuges containing 200 μl of 10% glycerol in HKR. Tubes were centrifuged for 2 minutes at 5,000 rpm, the tip containing the cell pellet cut off and radioactivity bound to the cells was determined.

[2] = system: T2, p75^NTR and TrkA; assay: Binding of 125I-NGF to PC12 cells (p75NTR + TrkA); parameters: species or system rat
T2 construct: these cells express both NGF receptor types; endogenous in cells; host or cells: PC12 rat pheochromocytoma cells
Experimental: as §1

[3] = biological target: T3, NGF (Mus musculus, UniProt P01139); assay: NGF protomer crosslinking with BS3 (NGF conformation), metal ions; assay type: biochemical; conditions: for NGF Protomer Conformation (active/inactive): 100 μM
T3 construct: homodimer
Experimental: For crosslinking NGF […], 0.4 mM BS^3 was added to the mixture and incubated for 30 minutes at 25° C. […] For CD studies, NGF (50 μg/ml) was dissolved in 50 mM Tris-HCl buffer and spectra recorded using a computer controlled Jasco J-600 spectropolarimeter. Samples were acquired in the absence or presence of Zn^2+ (100 μM) at 22° C. in a 2 mm quartz cell averaged over eight scans. Modification of His residues by DEPC was carried out as previously described, where the molar excess of DEPC added and the extent of reaction was determined by evaluating the loss of binding activity of the modified product.

[4] = system: PC12 cells; assay: NGF-dependent survival of PC12 cells; assay type: cell-based, rat; conditions: for Antagonism of NGF-dependent survival: high (1 nM) or low (50 pM) NGF; for Survival @ 50 pM NGF / Survival @ 1 nM NGF: rat, pc12 cells, 100 µM
Experimental: (§2) Effects of divalent ions on NGF mediated survival and toxicity was evaluated using a colorimetric assay for the lysosomal enzyme acid phosphatase to determine cell number (Connolly, D. T., Knight, M. B., Harakas, N. K, Wittwer, A. J. & Feder, J. Determination of the number of endothelial cells in culture using an acid phosphatase assay. Anal. Biochem. 152, 136-140 (1986); Ueda, Y., Walsh, E., Nakanishi H. & Yoshida, K. A. colorometric assay method for the evaluation of neurotrophic activity in vitro. Neurosci. Lett. 165, 203-207 (1994)). […] To evaluate toxicity, the cells were seeded and maintained without NGF in RPMI with 10% heat inactivated donor horse serum and 5% fetal calf serum in the presence of additives. Loss in viable cell number was determined and expressed as a percent of control. NGF rescues PC12 cells from cell death in serum-free medium(Greene, L. A. Nerve growth factor prevents the death and stimulates neuronal differentiation of clonal PC12 pheochromocytoma cells in serum-free medium. J. Cell Biol. 78, 747-755 (1978)). NGF-dependent survival was assessed by harvesting PC12 cells in balanced salt solution followed with washing by 4 cycles of suspension and centrifugation in serum-free RPMI prior to seeding in 96 well plates. After incubation with additives, medium was removed from the wells and cells washed once with 200 μl PBS. Buffer containing 0.1M sodium acetate pH 5.5, 0.1% Triton X-100 and 10 mM p-nitrophenyl phosphate (Sigma 104 phosphatase substrate) was added to each well (100 μl). Plates were incubated at 37° C. for 3 hours. The reaction was stopped by the addition of 10 μl/well of 1N sodium hydroxide and the color development measured at 405 nm using a microplate reader. The relationship between cell number and enzyme activity was linear over the range 1000 to 15,000 cells.
(§3) To explore the ability of other transition metals to influence the biological activities of NGF, a series of cations known to mimic in certain respects the binding of zinc to proteins were tested. […] For this reason these ions were not tested in NGF- dependant growth phenomena. […] As these studies appeared to indicate potentially complex results upon metal ions binding to NGF, a receptor crosslinking system where specific receptor types could be identified was utilized.

[5] = system: PC12 cells; assay: Toxicity to PC12 cells; assay type: cell-based, rat; conditions: 100 μM
Experimental: as §2, §3

[6] = system: p75^NTR /TrkA; assay: Receptor crosslinking of 125I-NGF with transition metal ions (receptor selectivity); assay type: binding
Experimental: as §3

[7] = system: p75; assay: Affinity cross-linking of 125I-NGF to p75 on PC12 cells; assay type: binding, rat; conditions: for Inhibition of p75 Interaction: 200 μM peptide, 0.1 nM 125I-NGF, PC12 cells
Experimental: The ability of the peptides under study to interfere with binding of NGF to NGF receptors was evaluated by analysis of inhibition of the chemical cross-linking of ^251 I-NGF to the common neurotrophin receptor p75 (Chao, J. Neurobiol. 25:1373-1385 (1994)) and the specific NGF receptor TrkA (Barbacid, J. Neurobiol. 25: 1386-1403 (1994)). Immunoprecipitation and polyacrylamide gel electrphoresis of cross linked receptors allowed identification of both receptors, as shown in FIG. 7A. […] At concentrations of 200 μM, neither R11(l) nor R11(m) were able to inhibit greater than 50% of the observed ^125 I-labelling.
The ability of the peptides derived from the 68-58/108-110 region of NGF to antagonize NGF interaction with the p75 and TrkA receptors was determined The peptides tested were bicyclic (BC) 68-58/108-110, cyclic (C) 68-58/108-110, and linear (L) 68-58/108-110, each of which are illustrated in FIGS. 2 and 5D
Receptor cross-linking studies were performed on PC12 rat pheochromocytoma cells (ATCC CRL 1721; Greene et al., Proc. Natl. Acad. Sci. USA 73: 2424-2432 (1976)) which were maintained in RPMI1640 (Gibco) supplemented with 10% fetal calf serum (Gibco). Cells were harvested by incubation and trituration in Ca^2+ and Mg^2+ free Gey's balanced salt solution, washed and suspended in 10 mM HEPES buffer (pH 7.35) containing 125 mM NaCl, 4.8 mM KCl, 1.3 mM CaCl2, […], 1.2 mM KH2 PO4, 1 g/L sucrose and 1 g/L bovine serum albumin (HEPES Krebs Ringer buffer, HKR buffer) at 10^6 cells/mL. Subsequent procedures were carried out at 4° C. unless otherwise noted.
For receptor crosslinking, ^125 I-NGF was prepared by the method of Sutter et al. (J. Biol. Chem. 254: 5972-5982 (1979)) from NGF isolated from mouse submaxillary gland (as described in Mobley et al., Biochemistry 15:1543 (1976)) obtained from Cedarlane.
[…] Control PC12 cells were incubated in HKR buffer in the presence of ^125 I-NGF only (no NGF peptide).
Receptor proteins were cross-linked with either 0.4 mM bis(sulfosuccinimidyl)suberate (BS^3, Pierce) for TrkA, or a combination of 2 mM […] (EDC) and 2 mM N-hydroxysulfosuccinimide (S-NHS) for p75^NTR as indicated. All cross-linking agents (from Pierce) were dissolved in water and added in 20 μL aliquots and the reaction allowed to proceed for 30 min at 25° C. On completion of the cross-linking reaction, the cells were washed three times in HKR buffer with BSA at 4° C. to remove excess free radiolabelled ligand and reagents. The cells were solubilized in 100 μL SDS sample buffer Samples were separated on a modified Laemmli discontinues acrylamide gel system (Laemmli, Nature 227:680 (1970)) using 4% SDS-PAGE stacking gel and a gradient urea polyacrylamide separating gel ranging from 4.5% acrylamide/18% urea to 7.5% acrylamide/48% urea. The gels were fixed and processed for autoradiography using -70° C. exposure with Kodak XAR film and manual processing (FIG. 7B).
For positive receptor identification, immunoprecipitation studies were performed. Samples of 10^7 cells in 1 mL HKR buffer were cross-linked under the conditions described above, washed in HKR buffer and solubilized in non-denaturing lysis buffer (1% NP40, 10% glycerol, 1 mM phenylmethylsulfonylfluoride, 10 μg/mL leupeptin and 0.5 mM o-vanadate in Tris-buffered saline) (Kaplan et al., Nature 350:1 158-160 (1991)). The solutions were clarified by centrifugation and immunoprecipitated with either mAb 192 (monoclonal antibody for p75; Cedarlane) or rabbit anti-TrkA, which had been raised against a COOH-terminal peptide of TrkA. The ^125 I-NGF cross-linked receptor-antibody complexes were isolated using 50 μL of a 50% solution of rabbit anti-mouse agarose (Sigma; for mAb 192) or protein A-Sepharose (Pharmcia; for anti-Trk) equilibrated in lysis buffer. Immunoprecipitates were washed three times in lysis buffer and the pellets denatured in SDS reducing sample buffer. […]

[8] = system: dorsal root ganglion (DRG) neurons; assay: NGF-dependent neurite growth of ED8 chick DRG neurons (FIG. 6, Terasaki plates); assay type: cell-based; conditions: concentrations up to 200 μM
Experimental: FIG. 6 is a graph showing the ability of R11 to inhibit the activity of NGF in vitro using a biological assay system. […] Dissociated cells enriched for sensory neurons were prepared from embryonic day 8 (ED8) chick dorsal root ganglion (DRG) as described (Sutter et al., J. Biol. Chem. 254: 5972-5982 (1979)). Neurons were seed into wells of Terasaki plates treated sequentially with poly-D-lysine and laminin at a density of 800-1000 cells/well in "synthetic" Dulbecco's modified Eagle medium (Bottenstein et al., Proc. Natl. Acad. Sci. USA 76: 514-517 (1979)) containing 1% fetal calf serum and NGF at […]. The cells were incubated with the additives indicated at 37° C. in a 5% CO2 atmosphere At 18-20 hours, the cells were fixed in 4% formaldehyde in phosphate-buffered saline and scored for neurite growth. The cells on the entire lower horizontal surface of the well were counted using an inverted microscope fitted with phase contrast optics. A neurite was scored if its caliber from origin to terminal was constant and its length was equal to or greater than 1.5 cell body diameters. Neurite growth was corrected for background (no NGF) growth in the presence and absence of peptide.
Such a profile is not typical of a competitive inhibitor. That is, a different dose response profile would be expected if R11 were simply competing with NGF for binding to a receptor. Neither of the less constrained synthetic Intermediates of R11, i.e., R11 (linear) or R11 (monocyclic), was as effective in blocking NGF-dependent neurite growth concentrations up to 200 μM.

T3 sequence (P01139 122-239): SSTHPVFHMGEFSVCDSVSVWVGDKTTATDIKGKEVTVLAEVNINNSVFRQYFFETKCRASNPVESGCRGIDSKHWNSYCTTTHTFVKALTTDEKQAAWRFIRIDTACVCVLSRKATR
T1 sequence (P01139 122-239): as above
Chain of p75^NTR /TrkA (P01139 122-239): as above
Chain of p75^NTR /TrkA (P07174 30-425 partner): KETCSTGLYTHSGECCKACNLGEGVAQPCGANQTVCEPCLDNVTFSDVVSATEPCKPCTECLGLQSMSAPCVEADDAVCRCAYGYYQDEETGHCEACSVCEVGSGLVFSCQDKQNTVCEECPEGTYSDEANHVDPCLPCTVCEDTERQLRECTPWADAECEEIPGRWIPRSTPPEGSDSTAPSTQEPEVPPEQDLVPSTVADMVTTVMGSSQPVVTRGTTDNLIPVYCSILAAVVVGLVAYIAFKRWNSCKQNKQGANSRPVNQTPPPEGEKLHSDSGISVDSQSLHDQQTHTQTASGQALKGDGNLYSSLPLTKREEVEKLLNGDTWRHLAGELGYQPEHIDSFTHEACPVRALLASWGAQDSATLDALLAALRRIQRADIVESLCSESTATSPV
Chain of p75^NTR /TrkA (P35739 33-799 partner): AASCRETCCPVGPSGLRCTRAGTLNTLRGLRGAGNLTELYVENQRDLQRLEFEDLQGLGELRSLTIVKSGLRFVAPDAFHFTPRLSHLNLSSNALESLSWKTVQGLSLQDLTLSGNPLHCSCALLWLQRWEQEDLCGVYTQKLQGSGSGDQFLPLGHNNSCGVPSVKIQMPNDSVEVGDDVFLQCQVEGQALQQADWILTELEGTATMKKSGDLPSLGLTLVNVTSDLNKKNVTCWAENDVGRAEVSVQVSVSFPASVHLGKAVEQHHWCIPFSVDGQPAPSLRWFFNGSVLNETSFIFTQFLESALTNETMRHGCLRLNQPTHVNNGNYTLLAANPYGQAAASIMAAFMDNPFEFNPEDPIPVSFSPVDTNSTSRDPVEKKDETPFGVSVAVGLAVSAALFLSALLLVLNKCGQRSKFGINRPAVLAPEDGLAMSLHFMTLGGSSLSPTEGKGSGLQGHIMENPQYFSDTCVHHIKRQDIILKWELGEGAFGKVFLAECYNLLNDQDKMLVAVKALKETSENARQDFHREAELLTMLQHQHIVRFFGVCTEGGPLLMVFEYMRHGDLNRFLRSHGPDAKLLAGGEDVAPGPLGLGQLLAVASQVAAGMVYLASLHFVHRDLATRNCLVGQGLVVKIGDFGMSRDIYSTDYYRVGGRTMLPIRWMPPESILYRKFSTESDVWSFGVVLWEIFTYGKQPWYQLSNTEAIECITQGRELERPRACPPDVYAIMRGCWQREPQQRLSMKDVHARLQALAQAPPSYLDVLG
T2 sequence (P01139 122-239): as the sequence (P01139 122-239) above

Compound | Total Binding to PC12 cells [1] [% control] | NGF Protomer Conformation (active/inactive) [3] | Survival @ 50 pM NGF [4] [% control] | Survival @ 1 nM NGF [4] [% control] | Toxicity (PC12 cell viability) [5] [% control] | Blocking of NGF binding to TrkA and p75NTR in receptor crosslinking [6] | also measured
[Cu+2] [Cu^2+] | -16 ± 7 | active | -2 ± 19 | -6 ± 8 | 74 ± 10 | blocked binding to both receptors | Prevention of 125I-NGF binding to PC12 cells [2]: ability to prevent binding; Antagonism of NGF-dependent survival [4]: ability to antagonize the NGF-dependant survival
CCOC(=O)OC(=O)OCC [DEPC, diethyl-pyrocarbonate, reference compound] | – | – | – | – | – | – | Receptor binding activity of NGF modified with DEPC [1]: loss in receptor binding activity; Protomer crosslinking efficiency of NGF modified with DEPC ([3]; no Zn2+): reduction in protomer crosslinking efficiency
[Mn+2] [Mn^2+] | 95 ± 24 | inactive | 91 ± 5 | 59 ± 24 | 82 ± 4 | did not have a significant effect | –
[Pd+2] [Pd^2+] | -5 ± 1 | active | 82 ± 9 | 125 ± 48 | 75 ± 6 | blocked binding to both receptors | Prevention of 125I-NGF binding to PC12 cells [2]: ability to prevent binding
[Pt+2] [Pt^2+] | 68 ± 11 | active | 74 ± 21 | 92 ± 35 | 93 ± 6 | blocked binding to both receptors | Antagonism of NGF-dependent survival [4]: ability to antagonize the NGF-dependant survival
NH2 -Cys-Gly-Ser-Glu-Val-Pro-Asn-Ser-Ala-Arg-Cys-Cys-Val-Cys-OH (H-CGSEVPNSARCCVC-OH; not fully specified; printed as NH2 -Cys-Gly-Ser-Glu-Val-Pro-Asn-Ser-Ala-Arg-Cys-Cys-Val-Cys-OH; cysteine pairing not given here) [R11(l), linear peptide R11] | – | – | – | – | – | – | Inhibition of the observed 125I-labelling (p75) ([7]; 200 μM): ≤ 50%; Inhibition of p75 Interaction ([7]; listed as L): no inhibition; Blocking of NGF-dependent neurite growth [8]: Neither of the less constrained intermediates R11(l) or R11 (m) were effective
NH2 -Cys-Gly-Ser-Glu-Val-Pro-Asn-Ser-Ala-Arg-Cys-Cys-Val-Cys-OH (H-CGSEVPNSARCCVC-OH; not fully specified; printed as NH2 -Cys-Gly-Ser-Glu-Val-Pro-Asn-Ser-Ala-Arg-Cys-Cys-Val-Cys-OH; cysteine pairing not given here) [R11(m), monocyclic R11 with a single disulfide bond] | – | – | – | – | – | – | Inhibition of p75 Interaction ([7]; listed as C): no inhibition
